Measured values: publication PMC11637191, “The pH-dependence of efflux ratios determined with bidirectional transport assays across cellular monolayers” (International Journal of Pharmaceutics: X, 2024)
Values joined by “and” are separate entries in the source; they are usually repeats but may differ in a detail not shown here. Equal entries are not always repeated. Where two headings read alike, the source gives them in different places.

Tests used:
[1] = Measurement of paracellular transport (Ppara) in MDCK-MDR1 cells with and without P-gp inhibitors; type: in vitro ADME, canine; conditions: dog, + 2 µM elacridar
Source text: In initial fits, we used experimentally obtained values for Ppara , determined by measuring the Papp of the relevant compound at a pH value where paracellular transport was expected to dominate. Since the compounds in this study are P-gp substrates, elacridar was also used to inhibit P-gp. Under these conditions, the measured Papp is expected to be a measure of Ppara . […]
X Measurement of paracellular transport […]
assess its relative contribution to overall flux, it is necessary to quantify paracellular transport in some way. An approximation of paracellular transport can be mathematically calculated as desc ribed in […]
and cell type can influence and complicate the predictions, leading to uncertainties. H owever, it can also be experimentally measured provided that it can be assured that the P app would be dominated by the contribution of P para . […]
compounds. In order to ensure paracellular dominance, 2 µM elacridar was used to inhibit potential P-gp facilitated efflux, and the transport buffer was set to a pH that would severely restrict the neutral […]
Table S13: P app values and measured logP para for basic and acidic marker compounds. P app values are the mean of three timepoints per replicate, for a total of three replicates (n = 3) ± standard […]
Compound pH Papp, A⟶B logP para Recovery fn
In light of the uncertainties in predicting P para , it was presumed more apt to measure P para for each compound individually in parallel with the pH dependence experiments. As described in Section 4.3 of the main text, experiments were initially performed for each tested compound with inhibitor and appropriate pH values (similar to those performed for Table S12) in an attempt to ensure the dominance of paracellular transport. These values could then be used as a direct measure for P para for each compound that could be fed to the model for its individual fit. […]
affecting P para and/or the measurement of it, we measured the P app of more commonly-used markers for paracellular transport with and without inhibitor. The transport of these rather hydrophilic compounds is known to be dominated by the paracellular route. Furthermore, for our MDCK- MDR1 […]
efflux is not expected to play a role. As such, the addition of inhibitor in this case is purely to evaluate if the P app changes when it is present.

[2] = tested on: P-gp (MDR1); experiment: in vitro; conditions: dog
[3] = in vitro; conditions: dog
[4] = tested on: P-gp (MDR1); experiment: Comparison of Papp,B-A with and without inhibitor in MDCK-MDR1 cells (own and literature data); conditions: dog, This study, varying pH with the iso-method
[5] = tested on: MDCK-MDR1 cells; experiment: as above
[6] = Calculation of neutral fraction (fn)
[7] = determined 25 °C; etoposide acidic, acebutolol basic; ref Avdeef, 2012; cited from earlier work
[8] = tested on: MDCK-MDR1 cells; conditions: pH 7.4 iso-method, cited from earlier work; for Papp, inhibitor: with inhibitor; for Papp, B⟶A: without inhibitor
[9] = calculated from literature Papp,B⟶A and Papp with inhibitor, pH 7.4 iso-method
[10] = ref Troutman and Thakker (2003)

Question: With `CCCC(=O)Nc1ccc(OCC(O)CNC(C)C)c(C(C)=O)c1` (stereo not shown) [Acebutolol] as the molecule, how does the recovery ([1]; MDCK-MDR1, pH 5, with elacridar 2 µM, pH 5, n = 3 (Table S13)) read?
Answer: Its recovery is 100%.

Question: What about the Papp ([1]; MDCK-MDR1, with elacridar 2 µM, pH 5, three replicates (n = 3) (Table S13)) of the same molecule?
Answer: Its Papp is 0.6 ± 0.2 ×10⁻⁶ cm/s.

Question: And the Papp ([2]; MDCK-MDR1, pH 5)?
Answer: Its Papp is 0.31 ± 0.11 ×10⁻⁶ cm/s.

Question: What about the Papp B→A ([2]; MDCK-MDR1, pH 5) of the same molecule?
Answer: The Papp B→A was 0.28 ± 0.05 ×10⁻⁶ cm/s.

Question: What about the Papp ([2]; MDCK-MDR1, pH 6) of the same molecule?
Answer: Its Papp is 0.1 ± 0.02 ×10⁻⁶ cm/s.

Question: What about the Papp B→A ([2]; MDCK-MDR1, pH 6) of the same molecule?
Answer: Its Papp B→A is 0.47 ± 0.07 ×10⁻⁶ cm/s.

Question: And the Papp ([2]; MDCK-MDR1, pH 7)?
Answer: Its Papp is 0.18 ± 0.02 ×10⁻⁶ cm/s.

Question: And the Papp B→A ([2]; MDCK-MDR1, pH 7)?
Answer: The Papp B→A was 2.92 ± 1.12 ×10⁻⁶ cm/s.

Question: And the Papp ([2]; MDCK-MDR1, pH 8)?
Answer: The Papp was 0.61 ± 0.28 ×10⁻⁶ cm/s.

Question: And the Papp B→A ([2]; MDCK-MDR1, pH 8)?
Answer: Its Papp B→A is 16.7 ± 2.4 ×10⁻⁶ cm/s.

Question: What about the Papp ([2]; MDCK-MDR1, pH 9) of the same molecule?
Answer: The Papp was 7.41 ± 3.04 ×10⁻⁶ cm/s.

Question: What about the Papp B→A ([2]; MDCK-MDR1, pH 9) of the same molecule?
Answer: Its Papp B→A is 38.5 ± 8.5 ×10⁻⁶ cm/s.

Question: And the recovery ([3]; MDCK-MDR1, pH 5)?
Answer: The recovery was 90 to 106%.

Question: And the recovery ([3]; MDCK-MDR1, pH 6)?
Answer: Its recovery is 88 to 120%.

Question: What about the recovery ([3]; MDCK-MDR1, pH 7) of the same molecule?
Answer: Its recovery is 88 to 102%.

Question: And the recovery ([3]; MDCK-MDR1, pH 8)?
Answer: The recovery was 78 to 83%.

Question: And the recovery ([3]; MDCK-MDR1, pH 9)?
Answer: The recovery was 72 to 79%.

Question: What about the Papp ([4]; MDCK-MDR1, Papp, B⟶A, without inhibitor) of the same molecule?
Answer: Its Papp is 16.7 ×10⁻⁶ cm/s.

Question: What about the Papp ([4]; MDCK-MDR1, pH 8, with P-gp inhibitor (elacridar 2 µM in this study's P0 assays), Papp, inhibitor, with inhibitor) of the same molecule?
Answer: Its Papp is 5.03 ×10⁻⁶ cm/s.

Question: What about the Factor difference ([5]; This study, Papp,B⟶A vs Papp with inhibitor, varying pH with the iso-method) of the same molecule?
Answer: The Factor difference was 3 and 5.

Question: What about the “Papp, inhibitor” value ([5]; This study, with inhibitor, varying pH with the iso-method) of the same molecule?
Answer: Its value is 3.16 ×10⁻⁶ cm/s.

Question: And the “Papp, B⟶A” value ([5]; This study, without inhibitor, varying pH with the iso-method)?
Answer: The value was 16.7 ×10⁻⁶ cm/s.

Question: And the Factor difference [5, 9]?
Answer: The Factor difference was 5.

Question: What about the fn ([6]; neutral fraction at pH 5) of the same molecule?
Answer: Its fn is 0.0%.

Question: What about the fn ([6]; neutral fraction at pH 8) of the same molecule?
Answer: The fn was 6%.

Question: And the pKa [7]?
Answer: Its pKa is 9.18.

Question: What about the “Papp, inhibitor” value [8, 10] of the same molecule?
Answer: The value was 3.73 ×10⁻⁶ cm/s.

Question: And the “Papp, B⟶A” value [8, 10]?
Answer: Its value is 17.2 ×10⁻⁶ cm/s.

Question: Which Factor difference [5, 9] does the source give for `CCOC(=O)CN[C@@H](C(=O)N1CC[C@H]1C(=O)NCc1ccc(/C(N)=N\O)cc1)C1CCCCC1` [Ximelagatran] here?
Answer: Its Factor difference is 6.

Question: And the “Papp, inhibitor” value ([8]; ref Eriksson et al. (2006))?
Answer: Its value is 7 ×10⁻⁶ cm/s.

Question: What about the “Papp, B⟶A” value ([8]; ref Eriksson et al. (2006)) of the same molecule?
Answer: The value was 39 ×10⁻⁶ cm/s.

Question: For `CN1CCC[C@@H]1Cc1c[nH]c2ccc(CCS(=O)(=O)c3ccccc3)cc12` [Eletriptan], which Factor difference [5, 9] is on record?
Answer: Its Factor difference is 2.

Question: What about the “Papp, inhibitor” value ([8]; ref Doan et al. (2002)) of the same molecule?
Answer: The value was 42.9 ×10⁻⁶ cm/s.

Question: And the “Papp, B⟶A” value ([8]; ref Doan et al. (2002))?
Answer: Its value is 66.3 ×10⁻⁶ cm/s.

Question: For `CC(C)NCC(O)c1ccc(NS(C)(=O)=O)cc1` (stereo not shown) [Sotolol], which Factor difference [5, 9] is on record?
Answer: The Factor difference was 5.

Question: And the “Papp, inhibitor” value ([8]; ref Liu et al. (2012))?
Answer: The value was 0.2 ×10⁻⁶ cm/s.

Question: What about the “Papp, B⟶A” value ([8]; ref Liu et al. (2012)) of the same molecule?
Answer: Its value is 1.05 ×10⁻⁶ cm/s.

Question: Which Factor difference [5, 9] does the source give for `Cc1c(O)cccc1C(=O)N[C@@H](CSc1ccccc1)[C@H](O)CN1C[C@H]2CCCC[C@H]2C[C@H]1C(=O)NC(C)(C)C` [Nelfinavir] here?
Answer: The Factor difference was 4.

Question: And the “Papp, inhibitor” value ([8]; ref Doan et al. (2002))?
Answer: Its value is 19.7 ×10⁻⁶ cm/s.

Question: What about the “Papp, B⟶A” value ([8]; ref Doan et al. (2002)) of the same molecule?
Answer: The value was 78.6 ×10⁻⁶ cm/s.
